For one assay, the target named is JMJD2C (Homo sapiens (Human), UniProt Q9H3R0). Description: JMJD2C in vitro enzyme inhibition assay (TR-FRET). The conditions noted are these: 0.3 nM JMJD2C, 300 nM H3K9me3-biotin peptide, 2 μM alpha-ketoglutaric acid, 30 minutes. It counts as biochemical. The protocol:
This assay determines the ability of a test compound to inhibit JMJD2C demethylase activity. Baculovirus expressed JMJD2C (GenBank Accession #BC143571, AA 2-372) was purchased from BPS Bioscience (Cat#50105).
The ability of test compounds to inhibit the activity of JMJD2C was determined in 384-well plate format under the following reaction conditions: 0.3 nM JMJD2C, 300 nM H3K9me3-biotin labeled peptide (Anaspec cat #64360), 2 μM alpha-ketoglutaric acid in assay buffer of 50 mM HEPES, pH7.3, 0.005% Brij35, 0.5 mM TCEP, 0.2 mg/ml BSA, 50 μM sodium L-ascorbate, and 2 μM ammonium iron(II) sulfate. Reaction product was determined quantitatively by TR-FRET after the addition of detection reagent Phycolink Streptavidin-allophycocyanin (Prozyme) and Europium-anti-di-methylated histone H3 lysine 9 (H3K9me2) antibody (PerkinElmer) in the presence of 5 mM EDTA in LANCE detection buffer (PerkinElmer) at a final concentration of 50 nM and 1 nM, respectively.
The assay reaction was initiated by the following: 2 μl of the mixture of 900 nM H3K9me3-biotin labeled peptide and 6 μM alpha-ketoglutaric acid with 2 μl of 11-point serial diluted inhibitor in 3% DMSO were added to each well of the plate, followed by the addition of 2 μl of 0.9 nM JMJD2C to initiate the reaction. The reaction mixture was incubated at room temperature for 30 minutes, and terminated by the addition of 6 μl of 5 mM EDTA in LANCE detection buffer containing 100 nM Phycolink Streptavidin-allophycocyanin and 2 nM Europium-anti-H3K9me2 antibody. Plates were read by EnVisionMultilabel Reader in TR-FRET mode (excitation at 320 nm, emission at 615 nm and 665 nm) after 1 hour incubation at room temperature. A ratio was calculated (665/615) for each well and fitted to determine inhibition constant (IC50).
The ability of the compounds disclosed herein to inhibit demethylase activity was quantified and the respective IC50 value was determined. Table 3 provides the IC50 values of various compounds disclosed herein.

The subject of assay [1] is KYSE-150 esophageal carcinoma cell line. In words: In vitro cell-based assay: BrdU incorporation cell proliferation ELISA. Details: species or system human. The conditions noted are these: Homo sapiens, KYSE-150 cells, 168 hours compound incubation, read-out: Cellular IC50. Here is the method:
Cell lines tested include the JMJD2C gene amplified cell line KYSE-150. This is a quantitative ELISA assay measuring DNA incorporation of BrdU during S-phase as a direct readout of cellular proliferation.
Assay Principle: This is a colorimetric immunoassay for the quantification of cell proliferation. Cells treated for 168 hours with test compounds are assayed for their ability to go through S-phase as a measure of their proliferative potential.
Assay Method: The human KYSE-150 (SMAD4 mut, TP53 mut) esophageal carcinoma cell line was seeded at 2,000 cells/well on a 96-well tissue culture treated plate. After an overnight incubation, cells were treated with compound in an 11-point dilution series with final concentrations ranging from 100 μM to 2 nM. Cells were then incubated in the presence of compound for 168 hours. After compound incubation the cells were assayed using a BrdU Cell Proliferation ELISA (Roche). The cells were first incubated with BrdU labeling reagent for 2 hours. After 2 hours, the BrdU incorporated cells were fixed and denatured, probed with an anti-BrdU-Peroxidase antibody for 1.5 hours and washed. Finally, a tetramethylbenzidine peroxidase substrate was added to each well for 15 minutes followed by a H2SO4 stop solution. The plate was read at 450 nm, and the raw optical density data was transferred into XLFit (IDBS) for IC50 calculation using the formula: fit=(D+((Vmax*(x^n))/((x^n)+(Km^n))))
Table 4 provides the cellular IC50 values of various compounds disclosed herein.

Chain of JMJD2C (Q9H3R0 2-372): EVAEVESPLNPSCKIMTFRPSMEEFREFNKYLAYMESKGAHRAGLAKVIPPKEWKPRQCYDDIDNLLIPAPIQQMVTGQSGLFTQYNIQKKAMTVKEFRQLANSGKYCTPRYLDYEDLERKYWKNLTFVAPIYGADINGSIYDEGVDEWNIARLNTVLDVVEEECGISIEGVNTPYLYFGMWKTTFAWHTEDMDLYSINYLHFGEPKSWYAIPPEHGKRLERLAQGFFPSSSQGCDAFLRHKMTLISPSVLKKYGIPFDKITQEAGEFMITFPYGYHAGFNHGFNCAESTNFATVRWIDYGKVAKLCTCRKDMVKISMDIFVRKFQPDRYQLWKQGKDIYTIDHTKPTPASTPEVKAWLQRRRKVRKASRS

`COc1ccc(N(C)c2ccc(Oc3nc(O)c4ccncc4n3)cc2)cc1` [Example 16, 2-{4-[(4-Methoxy-phenyl)-methyl-amino]-phenoxy}-pyrido[3,4-d]pyrimidin-4-ol]: on JMJD2C, the IC50 was 0.1 to 1 µM.
Still for that read-out and setting: with `Oc1nc(Oc2ccc3nn(Cc4ccccc4)cc3c2)nc2cnccc12` [Example 14, 2-[2-Benzyl-2H-indazol-5-yloxy]pyridino[3,4-d]pyrimidin-4-ol] the figure was 0.1 to 1 µM.
For the compound `CN(c1ccc(Oc2nc(O)c3ccncc3n2)cc1)c1cccc(N2CCC(N)CC2)c1` [Example 50, 2-[4-[3-(4-aminopiperidin-1-yl)-N-methylanilino]phenoxy]pyrido[3,4-d]pyrimidin-4-ol], the half-maximal inhibitory concentration (IC50) in assay [1] is over 10 µM; at JMJD2C, at most 0.1 µM.
As to `CC(C)c1cccc(N(C)c2ccc(Oc3nc(O)c4ccncc4n3)cc2)c1` [Example 93, 2-[4-(N-methyl-3-propan-2-ylanilino)phenoxy]pyrido[3,4-d]pyrimidin-4-ol], the half-inhibitory concentration (IC50) against JMJD2C lay within 0.1 to 1 µM.
For the compound `CN(c1ccc(Oc2nc(O)c3ccncc3n2)cc1)c1ccc(S(C)(=O)=O)cc1` [Example 57, 2-[4-(N-methyl-4-methylsulfonylanilino)phenoxy]pyrido[3,4-d]pyrimidin-4-ol], the IC50 in assay [1] is over 10 µM; against JMJD2C, 0.1 to 1 µM.
`CN(CC1CCCc2ccccc21)c1ccc(Oc2nc(O)c3ccncc3n2)cc1` (stereo not shown) [Example 28, 2-{4-[methyl-(1,2,3,4-tetrahydro-naphthalen-1-ylmethyl)-amino]-phenoxy}-pyrido[3,4-d]pyrimidin-4-ol] had an IC50 against JMJD2C of at most 0.1 µM.
For the compound `CN1CCN(c2ccc(N(C)c3ccc(Oc4nc(O)c5ccncc5n4)cc3)cc2)CC1` [Example 46, 2-[4-[N-methyl-4-(4-methylpiperazin-1-yl)anilino]phenoxy]pyrido[3,4-d]pyrimidin-4-ol], the 50% inhibitory concentration (IC50) was over 10 µM in assay [1] and 0.1 to 1 µM against JMJD2C.
The like results for `CN1CCC(N(C)c2cccc(N(C)c3ccc(Oc4nc(O)c5ccncc5n4)cc3)c2)CC1` [Example 89, 2-[4-[N-methyl-3-[methyl-(1-methylpiperidin-4-yl)amino]anilino]phenoxy]pyrido[3,4-d]pyrimidin-4-ol] were, in that order, 1 to 10 µM and at most 0.1 µM.
`COC(C)c1ccc(N(C)c2ccc(Oc3nc(O)c4ccncc4n3)cc2)cc1` (stereo not shown) [Example 36, 2-(4-{[4-(1-methoxy-ethyl)-phenyl]-methyl-amino}-phenoxy)-pyrido[3,4-d]pyrimidin-4-ol]: the concentration for half-maximal inhibition (IC50) (in assay [1]; on JMJD2C) was 0.1 to 1 µM in each case.
The compound `CN(c1ccccc1)c1ccc(Oc2nc(O)c3ccncc3n2)cc1F` [Example 10, 2-[3-Fluoro-4-(methyl-phenyl-amino)-phenoxy]-pyrido[3,4-d]pyrimidin-4-ol] gave an IC50 on JMJD2C of 0.1 to 1 µM.
As for `Oc1nc(Oc2ccc3c(cnn3Cc3ccccc3)c2)nc2cnccc12` [Example 15, 2-(1-Benzyl-1H-indazol-5-yloxy)-pyridino[3,4-d]pyrimidin-4-ol], the results for the IC50 (in assay [1]; on JMJD2C) were 1 to 10 µM and 0.1 to 1 µM, respectively.
`CC(C)c1ccc(N(C)c2ccc(Oc3nc(O)c4ccncc4n3)cc2)cn1` [Example 109, 2-[4-[methyl-(6-propan-2-ylpyridin-3-yl)amino]phenoxy]pyrido[3,4-d]pyrimidin-4-ol]: the 50% inhibitory concentration (IC50) was 1 to 10 µM in assay [1] and 0.1 to 1 µM at JMJD2C.
The like results for `CN(c1ccc(Oc2nc(O)c3ccncc3n2)cc1)c1ccc2nn(C)cc2c1` [Example 82, 2-[4-[methyl-(2-methylindazol-5-yl)amino]phenoxy]pyrido[3,4-d]pyrimidin-4-ol] were, in that order, over 10 µM and 0.1 to 1 µM.
On the same counts, the results for `CN(C)c1ccc(N(C)c2ccc(Oc3nc(O)c4ccncc4n3)cc2)cc1` [Example 44, 2-[4-[4-(dimethylamino)-N-methylanilino]phenoxy]pyrido[3,4-d]pyrimidin-4-ol] are over 10 µM and at most 0.1 µM.
The like results for `CN(CCc1ccccc1)c1ccc(Oc2nc(O)c3ccncc3n2)cc1` [Example 13, 2-{4-[Methyl(2-phenylethyl)amino]phenoxy}pyridino[3,4-d]pyrimidin-4-ol] were, in that order, 1 to 10 µM and 0.1 to 1 µM.
For `Oc1nc(Oc2ccc3c(c2)CCCN3c2ccccc2)nc2cnccc12` [Example 33, 2-(1-phenyl-1,2,3,4-tetrahydro-quinolin-6-yloxy)-pyrido[3,4-d]pyrimidin-4-ol], the IC50 against JMJD2C was 1 to 10 µM.
On the same count and under the same terms, with `CN(Cc1ccccc1)c1cccc(Oc2nc(O)c3ccncc3n2)c1` [Example 9, 2-[3-(Benzyl-methyl-amino)-phenoxy]-pyrido[3,4-d]pyrimidin-4-ol] the figure was 1 to 10 µM; with `CC(C)c1ccc(N(c2ccc(Oc3nc(O)c4ccncc4n3)cc2)C2CCOCC2)cc1` [Example 118, 2-(4-((4-isopropylphenyl)(tetrahydro-2H-pyran-4-yl)amino)phenoxy)pyrido[3,4-d]pyrimidin-4-ol], 0.1 to 1 µM; with `CC(C)c1ccc(N(CC(F)(F)F)c2ccc(Oc3nc(O)c4ccncc4n3)cc2)cc1` [Example 114, 2-{4-[(4-isopropyl-phenyl)-(2,2,2-trifluoro-ethyl)-amino]-phenoxy}-pyrido[3,4-d]pyrimidin-4-ol], 0.1 to 1 µM.
The same measure, in the same setting: with `CC(C)c1ccc(N(C)c2ccc(Oc3nc(O)c4ccncc4n3)cc2)cc1N1CCOCC1` [Example 35, 2-{4-[(4-isopropyl-3-morpholin-4-yl-phenyl)-methyl-amino]-phenoxy}-pyrido[3,4-d]pyrimidin-4-ol] the figure was 0.1 to 1 µM; with `Oc1nc(Oc2ccc3ccn(Cc4ccccc4)c3c2)nc2cnccc12` [Example 8, 2-(1-Benzyl-1H-indol-6-yloxy)-pyrido[3,4-d]pyrimidin-4-ol], 1 to 10 µM.
Compound `CC(C)Cc1ccc(N(C)c2ccc(Oc3nc(O)c4ccncc4n3)cc2)cc1` [Example 63, 2-[4-[N-methyl-4-(2-methylpropyl)anilino]phenoxy]pyrido[3,4-d]pyrimidin-4-ol] had an IC50 against JMJD2C of 0.1 to 1 µM.
Still for that read-out and setting: next, `Cc1cccc(N(C)c2ccc(Oc3nc(O)c4ccncc4n3)cc2)c1` [Example 21, 2-[4-(Methyl-m-tolyl-amino)-phenoxy]-pyrido[3,4-d]pyrimidin-4-ol]: 0.1 to 1 µM; `Oc1nc(Oc2ccc(N3CCCC(c4ccccc4)C3)cc2)nc2cnccc12` (stereo not shown) [Example 25, 2-[4-(3-phenyl-piperidin-1-yl)-phenoxy]-pyrido[3,4-d]pyrimidin-4-ol]: 0.1 to 1 µM.
The compound `COc1cccc(N(C)c2ccc(Oc3nc(O)c4ccncc4n3)cc2)c1` [Example 17, 2-{4-[(3-Methoxy-phenyl)-methyl-amino]-phenoxy}-pyrido[3,4-d]pyrimidin-4-ol] yielded an IC50 against JMJD2C of 0.1 to 1 µM.
On the same count and under the same terms, with `Cc1ccc(N(C)c2ccc(Oc3nc(O)c4ccncc4n3)cc2)cc1` [Example 20, 2-[4-(Methyl-p-tolyl-amino)-phenoxy]-pyrido[3,4-d]pyrimidin-4-ol] the figure was 0.1 to 1 µM; with `Oc1nc(Oc2ccc3c(ccn3C3CCCC3)c2)nc2cnccc12` [Example 31, 2-(1-cyclopentyl-1H-indol-5-yloxy)-pyrido[3,4-d]pyrimidin-4-ol], 1 to 10 µM.
Same read-out and setting: next, `CN(c1ccc(Oc2nc(O)c3ccncc3n2)cc1)c1ccc(N2CCOCC2)cc1` [Example 18, 2-{4-[Methyl-(4-morpholin-4-yl-phenyl)-amino]-phenoxy}-pyrido[3,4-d]pyrimidin-4-ol]: 0.1 to 1 µM; `CC(C)c1ccc(N(C)c2ccc(Oc3nc(O)c4ccncc4n3)cc2)nc1` [Example 34, 2-{4-[(5-isopropyl-pyridin-2-yl)-methyl-amino]-phenoxy}-pyrido[3,4-d]pyrimidin-4-ol]: at most 0.1 µM.
Still for that read-out and setting: next, `Oc1nc(Oc2ccc3cnn(Cc4ccccc4)c3c2)nc2cnccc12` [Example 11, 2-(1-Benzyl-1H-indazol-6-yloxy)-pyrido[3,4-d]pyrimidin-4-ol]: 0.1 to 1 µM.
